From patent US20260085067A1, “CYCLIC SULFONAMIDE RIBONUCLEOTIDE REDUCTASE (RNR) INHIBITORS AND USES THEREOF” (Boundless Bio, Inc., priority 2022, published 2026)

Key:
RNR (RNR1:RNR2 1:1) = molecular target: T1, RNR (RNR1:RNR2 1:1) (Homo sapiens, UniProt P23921); assay: RNR enzyme activity, rapid-fire mass spectrometry (RF/MS) assay; format: biochemical; conditions: [RNR] 50 nM, 1:1 RNR1:RNR2; CDP 5 μM; ATP 1 mM; 37° C., 45 min; compounds screened up to 50 μM
T1 sequence (P23921 1-792): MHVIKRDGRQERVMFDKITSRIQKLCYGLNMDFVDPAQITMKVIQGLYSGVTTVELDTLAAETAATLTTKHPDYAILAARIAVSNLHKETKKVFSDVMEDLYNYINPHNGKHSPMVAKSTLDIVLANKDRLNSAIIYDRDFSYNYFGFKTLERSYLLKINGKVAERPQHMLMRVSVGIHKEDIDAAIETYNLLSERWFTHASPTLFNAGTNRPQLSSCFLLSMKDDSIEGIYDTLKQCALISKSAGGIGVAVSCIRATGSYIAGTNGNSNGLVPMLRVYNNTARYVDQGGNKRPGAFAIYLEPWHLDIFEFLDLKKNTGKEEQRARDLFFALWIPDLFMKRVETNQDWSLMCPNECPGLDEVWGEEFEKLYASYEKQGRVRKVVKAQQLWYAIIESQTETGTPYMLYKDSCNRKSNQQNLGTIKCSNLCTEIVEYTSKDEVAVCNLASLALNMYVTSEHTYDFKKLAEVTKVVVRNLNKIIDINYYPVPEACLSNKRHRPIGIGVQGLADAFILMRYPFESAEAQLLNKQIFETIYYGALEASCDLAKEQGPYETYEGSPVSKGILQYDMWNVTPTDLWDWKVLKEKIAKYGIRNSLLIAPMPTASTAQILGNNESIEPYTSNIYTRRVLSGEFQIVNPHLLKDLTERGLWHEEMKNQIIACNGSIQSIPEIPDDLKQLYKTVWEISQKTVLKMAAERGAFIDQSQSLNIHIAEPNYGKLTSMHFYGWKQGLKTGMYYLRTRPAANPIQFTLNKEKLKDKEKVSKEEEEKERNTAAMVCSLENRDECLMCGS
How it was run: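 Human RNR (50 nM final, RNR1:RNR2 1:1) pre-incubated 15 min at room temperature, then reacted 45 min at 37 °C with 5 μM CDP and 1 mM ATP, no NADPH. Reaction quenched with 6% HCOOH; product quantified by rapid-fire mass spectrometry.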

[1] = system: pCHK1 (S345) in Colo320 DM cells; assay: Alphalisa assay, detection of pCHK1 (S345) in Colo320 DM cells; format: cell-based, human; conditions: Homo sapiens, COLO 320DM, compound overnight (approximately 16 hours)
How it was run: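 Colo320 DM cells plated overnight, then exposed to compound for about 16 h at 37 °C (DMSO <0.5%). Cells lysed and phospho-CHK1 (S345) quantified by AlphaLisa SureFire with sequential 60 min acceptor and donor incubations at room temperature.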

human hepatocytes = assay: Human hepatocyte stability assay; format: in vitro ADME; conditions: 0.5×10^6 viable cells/ml, time points 0.5 and 60 minutes
Procedure: 1. 10 mM stock solutions of test compounds and positive control were prepared in DMSO. Thawing medium and supplement incubation medium (serum-free) were placed in a 37° C. water bath for at least 15 minutes prior to use.
2. Stock solutions were diluted to 100 μM by combining 198 μL acetonitrile and 2 μL of 10 mM stock solution. Verapamil was use as positive control in the assay.
3. Vials of cryopreserved human hepatocytes were removed from storage, while ensuring that vials remain at cryogenic temperatures. The pressure was removed by loosening and re-tightening the cap. The vials were thawed in a 37° C. water bath with gentle shaking. Vials remained in the water bath until all ice crystals had dissolved and were no longer visible. Vials were sprayed with 70% ethanol before being transferred to a biosafety cabinet. Then the contents were poured into a 50 mL thawing medium conical tube. Vials were centrifuged at 100 g for 10 minutes at room temperature. Thawing medium was aspirated and hepatocytes were re-suspended with serum-free incubation medium to yield ˜1.5×10^6 cells/mL.
4. Cell viability and density were counted using Cellometer® Vision, and then cells were diluted with serum-free incubation medium to a working cell density of 0.5×10^6 viable cells/ml.
5. Aliquots of 198 μL hepatocytes were dispensed into each well of a 96-well non-coated plate. The plate was placed in the incubator on an orbital shaker at 500 rpm for approximately 10 minutes.
6. Aliquots of 2 μL of the 100 μM test compounds or verapamil were added into respective wells of the non-coated 96-well plate to start the reaction. This assay was performed in duplicate. The plate was incubated in the incubator on an orbital shaker at 500 rpm for the designed time points.
7.25 μL of contents were transferred and mixed with 5 volumes (125 μL) of cold acetonitrile with IS (100 nM alprazolam, 200 nM caffeine, 100 nM labetalol and 100 nM tolbutamide) to terminate the reaction at time points of 0.5 and 60 minutes. Samples were centrifuged for 30 minutes at 3,220 g. Then transfer 100 μL of the supernatant to new 96-well plates for analysis. Add 100 μL of distilled water to each sample and mix for analysis by LC-MS/MS.
All calculations were carried out using Microsoft Excel. Peak areas were determined from extracted ion chromatograms. The in vitro half-life (tin) of the parent compound was determined by regression analysis of the percent parent disappearance vs. time curve. • a. The in vitro half-life (in vitro tin) was determined from the slope value: in vitro t1/2=0.693/k • b. Conversion of the in vitro tin (in min) into the in vitro intrinsic clearance (in vitro CLint, in μL/min/10^6 cells) was done using the following equation: […]

| IC50 (RNR (RNR1:RNR2 1:1)) | IC50 [1] | SMILES | Clhep (human hepatocytes) |
| --- | --- | --- | --- |
| < 20 nM | ≤ 1000 nM | Cc1ccc(F)c([C@@H](C)[C@@H](c2n[nH]c(=O)o2)N2CN(CCO)c3cc(Cl)ccc3S2(=O)=O)c1C [Example 50, 5-((1S,2R)-1-(6-chloro-4-(2-hydroxyethyl)-1,1-dioxido-3,4-dihydro-2H-benzo[e][1,2,4]thiadiazin-2-yl)-2-(6-fluoro-2,3-dimethylphenyl)propyl)-1,3,4-oxadiazol-2 (3H)-one] | A (0 ml/min/kg ≤ Clhep ≤ 10 ml/min/kg) |
| < 20 nM | ≤ 1000 nM | CC(=O)c1cc(Cl)cc2c1S(=O)(=O)N([C@H](c1n[nH]c(=O)o1)[C@H](C)c1c(F)ccc(C)c1C)CCO2 [Example 60, 5-((1S,2R)-1-(9-acetyl-7-chloro-1,1-dioxido-3,4-dihydro-2H-benzo[b][1,4,5]oxathiazepin-2-yl)-2-(6-fluoro-2,3-dimethylphenyl)propyl)-1,3,4-oxadiazol-2 (3H)-one] | B (10 ml/min/kg < Clhep ≤ 20 ml/min/kg) |
| < 20 nM | ≤ 1000 nM | CC(=O)c1cc(Cl)cc2c1S(=O)(=O)N([C@H](c1n[nH]c(=O)o1)[C@H](C)c1c(F)ccc(C)c1C)CN2C [Example 75, 5-((1S,2R)-1-(8-acetyl-6-chloro-4-methyl-1,1-dioxido-3,4-dihydro-2H-benzo[e][1,2,4]thiadiazin-2-yl)-2-(6-fluoro-2,3-dimethylphenyl)propyl)-1,3,4-oxadiazol-2 (3H)-one] | B (10 ml/min/kg < Clhep ≤ 20 ml/min/kg) |
